# What was measured:
# Type in all cases: binding
# BRD2(2) = molecular target: T1, BRD2(2) (Homo sapiens, UniProt P25440); assay: Thermal shift assay, BRD2(2)
# T1 construct: BRD2(2); purchased in-house (SGC bromodomain thermal shift / AlphaScreen panel)
# GCN5 = molecular target: T2, GCN5 (Homo sapiens, UniProt Q92830); assay: Thermal shift assay, GCN5
# T2 construct: purchased in-house (SGC bromodomain thermal shift / AlphaScreen panel)
# Description: (§1) II.VII Thermal Shift Assay[6]
# (§2) Thermal melting experiments were carried out using an Mx3005p Real Time PCR machine (Stratagene). Proteins were buffered in 10 mM HEPES pH 7.5, 500 mM NaCl and assayed in a 96-well plate at a final concentration of 2 μM in 20 μL volume. Compounds were added at a final concentration of 50 μM. SYPRO Orange (Molecular Probes) was added as a fluorescence probe at a dilution of 1:1000. Excitation and emission filters for the SYPRO-Orange dye were set to 465 nm and 590 nm, respectively. The temperature was raised with a step of 3 °C per minute from 25 °C to 96 °C and fluorescence readings were taken at each interval. The unfolding curves were fitted using the Boltzmann equation to determine the middle point of the transition.
# WDR9(2) = molecular target: T3, WDR9(2) (Homo sapiens, UniProt Q9NSI6); assay: Thermal shift assay, WDR9(2)
# T3 construct: Bromosporine with recombinant human bromodomain proteins; made in house
# T3 sequence (Q9NSI6 1313-1418 limits assumed): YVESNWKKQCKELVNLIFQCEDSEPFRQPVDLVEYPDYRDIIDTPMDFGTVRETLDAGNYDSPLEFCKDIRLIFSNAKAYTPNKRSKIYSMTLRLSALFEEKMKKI
# Description: as §1, §2
# BRD8 = molecular target: T4, BRD8 (Homo sapiens, UniProt Q9H0E9); assay: Thermal shift assay, BRD8
# T4 construct: purchased in-house (SGC bromodomain thermal shift / AlphaScreen panel)
# Description: as §1, §2
# BRD4(1) = BRD4(1) (Homo sapiens, UniProt O60885); assay: Thermal shift assay, BRD4(1); design: BRD4(1); purchased in-house (SGC bromodomain thermal shift / AlphaScreen panel)
# Description: as §1, §2
# LOC93349 = molecular target: T5, LOC93349 (Homo sapiens, UniProt Q9H930); assay: Thermal shift assay, LOC93349
# T5 construct: purchased in-house (SGC bromodomain thermal shift / AlphaScreen panel)
# T5 sequence (Q9H930 whole entry): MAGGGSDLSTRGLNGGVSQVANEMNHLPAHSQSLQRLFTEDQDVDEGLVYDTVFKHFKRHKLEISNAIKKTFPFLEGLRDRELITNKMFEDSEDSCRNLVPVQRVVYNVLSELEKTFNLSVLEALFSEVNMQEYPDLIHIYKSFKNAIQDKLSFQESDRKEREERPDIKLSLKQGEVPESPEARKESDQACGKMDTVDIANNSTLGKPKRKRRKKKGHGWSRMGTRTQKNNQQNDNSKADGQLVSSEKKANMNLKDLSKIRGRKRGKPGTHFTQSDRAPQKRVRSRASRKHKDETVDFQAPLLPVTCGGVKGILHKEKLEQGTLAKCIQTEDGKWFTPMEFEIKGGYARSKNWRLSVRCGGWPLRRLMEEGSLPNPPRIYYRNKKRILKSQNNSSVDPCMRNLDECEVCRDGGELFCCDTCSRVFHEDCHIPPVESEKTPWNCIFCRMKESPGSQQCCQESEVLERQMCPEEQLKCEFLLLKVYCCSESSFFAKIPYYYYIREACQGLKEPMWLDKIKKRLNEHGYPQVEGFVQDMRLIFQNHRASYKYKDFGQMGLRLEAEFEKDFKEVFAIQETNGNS
# Description: as §1, §2
# CECR2 = CECR2 (Homo sapiens, UniProt Q9BXF3); assay: Thermal shift assay, CECR2; design: purchased in-house (SGC bromodomain thermal shift / AlphaScreen panel)
# PHIP(2) = molecular target: T6, PHIP(2) (Homo sapiens, UniProt Q8WWQ0); assay: Thermal shift assay, PHIP(2)
# T6 construct: PHIP(2); purchased in-house (SGC bromodomain thermal shift / AlphaScreen panel)
# Description: as §1, §2
# BRD3(1) = molecular target: T7, BRD3(1) (Homo sapiens, UniProt Q15059); assay: Thermal shift assay, BRD3(1)
# T7 construct: BRD3(1); purchased in-house (SGC bromodomain thermal shift / AlphaScreen panel)
# T7 sequence (Q15059 24-144 limits assumed): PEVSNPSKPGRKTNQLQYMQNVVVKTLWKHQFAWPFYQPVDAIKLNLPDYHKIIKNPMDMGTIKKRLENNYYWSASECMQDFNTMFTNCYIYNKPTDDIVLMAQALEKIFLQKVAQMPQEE
# Description: as §1, §2
# CREBBP = molecular target: T8, CREBBP (Homo sapiens, UniProt Q92793); assay: Thermal shift assay, CREBBP
# T8 construct: purchased in-house (SGC bromodomain thermal shift / AlphaScreen panel)
# T8 sequence (Q92793 whole entry): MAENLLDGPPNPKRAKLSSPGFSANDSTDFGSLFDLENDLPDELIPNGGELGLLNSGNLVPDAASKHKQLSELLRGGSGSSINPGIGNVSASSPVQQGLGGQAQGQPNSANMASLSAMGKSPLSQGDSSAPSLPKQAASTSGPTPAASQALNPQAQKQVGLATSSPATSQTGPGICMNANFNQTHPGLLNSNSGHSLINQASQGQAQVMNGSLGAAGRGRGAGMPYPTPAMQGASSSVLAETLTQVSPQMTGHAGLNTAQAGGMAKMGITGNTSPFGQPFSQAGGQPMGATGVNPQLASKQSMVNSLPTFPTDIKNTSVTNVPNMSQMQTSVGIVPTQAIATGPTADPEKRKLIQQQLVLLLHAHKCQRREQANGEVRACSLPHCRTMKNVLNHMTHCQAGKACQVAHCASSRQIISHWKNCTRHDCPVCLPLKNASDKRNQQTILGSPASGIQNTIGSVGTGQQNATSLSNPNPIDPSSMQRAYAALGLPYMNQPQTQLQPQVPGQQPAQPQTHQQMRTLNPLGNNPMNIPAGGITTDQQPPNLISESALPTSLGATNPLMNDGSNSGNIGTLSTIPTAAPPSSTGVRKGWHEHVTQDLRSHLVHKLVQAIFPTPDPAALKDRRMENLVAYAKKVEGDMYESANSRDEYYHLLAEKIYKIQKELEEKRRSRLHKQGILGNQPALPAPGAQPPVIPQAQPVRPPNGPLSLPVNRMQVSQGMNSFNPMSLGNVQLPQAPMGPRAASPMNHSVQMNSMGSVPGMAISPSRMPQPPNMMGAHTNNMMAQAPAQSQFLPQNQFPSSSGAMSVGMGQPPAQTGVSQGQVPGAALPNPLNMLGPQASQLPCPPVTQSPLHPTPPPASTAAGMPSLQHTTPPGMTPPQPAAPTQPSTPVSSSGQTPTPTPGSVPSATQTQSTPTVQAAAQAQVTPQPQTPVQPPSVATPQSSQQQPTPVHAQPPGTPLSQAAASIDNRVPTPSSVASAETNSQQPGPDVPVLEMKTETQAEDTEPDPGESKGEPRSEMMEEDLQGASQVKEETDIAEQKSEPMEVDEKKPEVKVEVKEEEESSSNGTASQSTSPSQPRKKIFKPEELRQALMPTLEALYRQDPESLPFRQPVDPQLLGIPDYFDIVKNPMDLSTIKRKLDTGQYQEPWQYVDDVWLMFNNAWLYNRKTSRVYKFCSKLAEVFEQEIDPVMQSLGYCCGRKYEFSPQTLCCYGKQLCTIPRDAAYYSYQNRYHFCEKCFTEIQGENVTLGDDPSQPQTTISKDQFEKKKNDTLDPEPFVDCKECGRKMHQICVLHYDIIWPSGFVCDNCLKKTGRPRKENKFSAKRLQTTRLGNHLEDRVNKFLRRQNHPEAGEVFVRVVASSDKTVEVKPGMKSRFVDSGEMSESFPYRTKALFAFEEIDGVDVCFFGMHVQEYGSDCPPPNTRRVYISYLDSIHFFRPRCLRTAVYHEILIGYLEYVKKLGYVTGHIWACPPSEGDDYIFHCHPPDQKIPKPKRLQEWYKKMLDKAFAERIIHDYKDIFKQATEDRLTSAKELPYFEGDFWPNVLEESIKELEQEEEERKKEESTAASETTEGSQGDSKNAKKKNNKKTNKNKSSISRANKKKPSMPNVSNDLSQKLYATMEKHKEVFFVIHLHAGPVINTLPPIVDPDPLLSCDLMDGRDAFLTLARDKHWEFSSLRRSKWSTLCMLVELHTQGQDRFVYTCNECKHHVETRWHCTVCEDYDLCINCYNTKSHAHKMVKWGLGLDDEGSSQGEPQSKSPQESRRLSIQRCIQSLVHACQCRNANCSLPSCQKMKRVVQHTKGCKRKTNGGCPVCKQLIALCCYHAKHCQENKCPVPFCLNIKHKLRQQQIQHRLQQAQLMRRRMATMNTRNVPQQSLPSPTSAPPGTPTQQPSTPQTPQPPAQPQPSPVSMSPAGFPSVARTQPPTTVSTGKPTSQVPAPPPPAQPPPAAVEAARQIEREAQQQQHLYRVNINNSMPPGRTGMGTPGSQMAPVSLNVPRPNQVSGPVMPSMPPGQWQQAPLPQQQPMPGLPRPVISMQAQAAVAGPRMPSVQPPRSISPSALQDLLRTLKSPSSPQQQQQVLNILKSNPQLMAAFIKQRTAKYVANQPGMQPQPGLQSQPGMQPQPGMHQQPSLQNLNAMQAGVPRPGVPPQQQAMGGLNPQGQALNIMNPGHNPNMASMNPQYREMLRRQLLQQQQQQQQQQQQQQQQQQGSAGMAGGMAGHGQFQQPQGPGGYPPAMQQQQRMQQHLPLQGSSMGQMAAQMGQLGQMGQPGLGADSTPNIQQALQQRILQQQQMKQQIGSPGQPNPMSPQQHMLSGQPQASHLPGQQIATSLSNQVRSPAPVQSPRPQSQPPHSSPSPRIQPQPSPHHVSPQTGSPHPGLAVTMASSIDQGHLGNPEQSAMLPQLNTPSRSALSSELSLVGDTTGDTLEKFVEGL
# TAF1L(2) = molecular target: T9, TAF1L(2) (Homo sapiens, UniProt Q8IZX4); assay: Thermal shift assay, TAF1L(2)
# T9 construct: Bromosporine with recombinant human bromodomain proteins; made in house
# T9 sequence (Q8IZX4 1517-1626 limits assumed): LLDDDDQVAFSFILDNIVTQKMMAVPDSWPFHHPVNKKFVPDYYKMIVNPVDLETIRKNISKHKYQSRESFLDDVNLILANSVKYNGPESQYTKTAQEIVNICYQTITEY
# Description: as §1, §2
# SMARCA4 = molecular target: T10, SMARCA4 (Homo sapiens, UniProt P51532); assay: Thermal shift assay, SMARCA4
# T10 construct: purchased in-house (SGC bromodomain thermal shift / AlphaScreen panel)
# PB1(6) = molecular target: T11, PB1(6) (Homo sapiens, UniProt Q86U86); assay: Thermal shift assay, PB1(6)
# T11 construct: PB1(6); purchased in-house (SGC bromodomain thermal shift / AlphaScreen panel)
# Description: as §1, §2
# SP140 = molecular target: T12, SP140 (Homo sapiens, UniProt Q13342); assay: Thermal shift assay, SP140
# T12 construct: purchased in-house (SGC bromodomain thermal shift / AlphaScreen panel)
# T12 sequence (Q13342 whole entry): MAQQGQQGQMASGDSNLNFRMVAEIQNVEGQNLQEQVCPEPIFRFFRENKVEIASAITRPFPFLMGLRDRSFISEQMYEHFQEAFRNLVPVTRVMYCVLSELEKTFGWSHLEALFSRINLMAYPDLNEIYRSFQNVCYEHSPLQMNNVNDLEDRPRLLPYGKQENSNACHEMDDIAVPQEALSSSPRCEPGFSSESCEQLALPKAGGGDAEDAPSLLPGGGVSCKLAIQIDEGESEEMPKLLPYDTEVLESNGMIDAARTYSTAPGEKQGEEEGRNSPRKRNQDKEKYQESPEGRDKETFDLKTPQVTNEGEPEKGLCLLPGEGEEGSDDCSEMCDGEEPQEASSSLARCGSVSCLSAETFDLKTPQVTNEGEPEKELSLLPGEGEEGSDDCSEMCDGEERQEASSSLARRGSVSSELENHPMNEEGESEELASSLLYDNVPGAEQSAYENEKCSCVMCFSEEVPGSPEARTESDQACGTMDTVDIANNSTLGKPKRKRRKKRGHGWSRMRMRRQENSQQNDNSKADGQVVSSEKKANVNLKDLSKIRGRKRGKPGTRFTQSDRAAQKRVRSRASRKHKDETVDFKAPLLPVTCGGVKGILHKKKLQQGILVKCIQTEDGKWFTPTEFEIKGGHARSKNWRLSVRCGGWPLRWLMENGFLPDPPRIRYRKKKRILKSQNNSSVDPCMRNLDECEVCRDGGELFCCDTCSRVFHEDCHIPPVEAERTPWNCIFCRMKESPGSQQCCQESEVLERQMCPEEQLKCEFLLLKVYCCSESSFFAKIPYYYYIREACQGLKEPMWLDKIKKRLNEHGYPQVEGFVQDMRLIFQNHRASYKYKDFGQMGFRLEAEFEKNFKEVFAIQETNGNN
# Description: as §1, §2
# PB1(5) = molecular target: T13, PB1(5) (Homo sapiens, UniProt Q86U86); assay: Thermal shift assay, PB1(5)
# T13 construct: PB1(5); purchased in-house (SGC bromodomain thermal shift / AlphaScreen panel)
# T13 sequence (Q86U86 645-766 limits assumed): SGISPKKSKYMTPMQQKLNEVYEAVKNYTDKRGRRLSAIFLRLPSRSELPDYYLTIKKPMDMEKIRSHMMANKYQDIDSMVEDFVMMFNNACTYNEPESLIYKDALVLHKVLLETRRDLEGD
# Description: as §1, §2
# T2 sequence (Q92830 whole entry): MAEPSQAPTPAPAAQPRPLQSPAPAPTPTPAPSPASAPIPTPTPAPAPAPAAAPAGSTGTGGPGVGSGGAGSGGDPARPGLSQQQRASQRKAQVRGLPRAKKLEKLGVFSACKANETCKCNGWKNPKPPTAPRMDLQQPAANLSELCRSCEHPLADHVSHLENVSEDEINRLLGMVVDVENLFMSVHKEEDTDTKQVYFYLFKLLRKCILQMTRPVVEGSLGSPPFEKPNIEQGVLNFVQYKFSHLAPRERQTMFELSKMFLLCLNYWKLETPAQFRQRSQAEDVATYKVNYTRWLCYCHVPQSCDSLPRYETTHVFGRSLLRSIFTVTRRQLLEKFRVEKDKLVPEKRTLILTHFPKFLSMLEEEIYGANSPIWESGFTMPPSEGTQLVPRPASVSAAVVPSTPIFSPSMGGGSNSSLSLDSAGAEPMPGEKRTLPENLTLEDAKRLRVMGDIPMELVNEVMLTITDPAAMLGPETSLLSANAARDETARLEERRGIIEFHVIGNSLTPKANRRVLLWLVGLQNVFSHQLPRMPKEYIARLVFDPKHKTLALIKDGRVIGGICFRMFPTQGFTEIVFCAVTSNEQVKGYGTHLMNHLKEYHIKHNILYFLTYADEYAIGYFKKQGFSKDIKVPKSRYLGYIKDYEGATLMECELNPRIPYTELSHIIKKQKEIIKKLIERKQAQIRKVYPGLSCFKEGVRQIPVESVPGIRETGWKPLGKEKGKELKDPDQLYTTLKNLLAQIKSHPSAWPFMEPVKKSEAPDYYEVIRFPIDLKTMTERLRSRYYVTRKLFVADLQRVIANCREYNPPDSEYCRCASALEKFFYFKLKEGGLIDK
Structure (SMILES),"Thermal stabilisation, BRD2(2) (BRD2(2); 50 μM compound)","Thermal stabilisation, GCN5 (GCN5; 50 μM compound)","Thermal stabilisation, WDR9(2) (WDR9(2); 50 μM compound)","Thermal stabilisation, BRD8 (BRD8; 50 μM compound)","Thermal stabilisation, BRD4(1) (BRD4(1); 50 μM compound)","Thermal stabilisation, LOC93349 (LOC93349; 50 μM compound)","Thermal stabilisation, CECR2 (CECR2; 50 μM compound)","Thermal stabilisation, PHIP(2) (PHIP(2); 50 μM compound)","Thermal stabilisation, BRD3(1) (BRD3(1); 50 μM compound)","Thermal stabilisation, CREBBP (CREBBP; 50 μM compound)","Thermal stabilisation, TAF1L(2) (TAF1L(2); 50 μM compound)","Thermal stabilisation, SMARCA4 (SMARCA4; 50 μM compound)","Thermal stabilisation, PB1(6) (PB1(6); 50 μM compound)","Thermal stabilisation, SP140 (SP140; 50 μM compound)","Thermal stabilisation, PB1(5) (PB1(5); 50 μM compound)",also measured
"CCOC(=O)Nc1cc(-c2ccc(C)c(NS(C)(=O)=O)c2)nn2c(C)nnc12 [Bromosporine, reference compound]",,,,,,,,,,,,,,,,"Thermal stabilisation, BRD2(2) (BRD2(2); 10 µM compound concentration): 5.8; Thermal stabilisation, GCN5 (GCN5; 10 µM compound concentration): 0.925; Thermal stabilisation, WDR9(2) (WDR9(2); 10 µM compound concentration): -1.225; Thermal stabilisation, BRD8 (BRD8; 10 µM compound concentration): 0.74; Thermal stabilisation, BRD4(1) (BRD4(1); 10 µM compound concentration): 6.61; Thermal stabilisation, LOC93349 (LOC93349; 10 µM compound concentration): 2.385; Thermal stabilisation, CECR2 (CECR2; 10 µM compound concentration): 11.42; Thermal stabilisation, PHIP(2) (PHIP(2); 10 µM compound concentration): -2.61; Thermal stabilisation, BRD3(1) (BRD3(1); 10 µM compound concentration): 5.275; Thermal stabilisation, CREBBP (CREBBP; 10 µM compound concentration): 3.31; Thermal stabilisation, TAF1L(2) (TAF1L(2); 10 µM compound concentration): 4.83; Thermal stabilisation, SMARCA4 (SMARCA4; 10 µM compound concentration): 0.12; Thermal stabilisation, PB1(6) (PB1(6); 10 µM compound concentration): 0.82; Thermal stabilisation, SP140 (SP140; 10 µM compound concentration): -1.045; Thermal stabilisation, PB1(5) (PB1(5); 10 µM compound concentration): 0.98"
COC(=O)c1ccc(C(=O)Nc2ccc3[nH]c(CN4CCCCC4)nc3c2)cc1 [Compound 1],0.55,0.145,-0.18,-1.225,1.095,0.035,1.28,-0.595,1.82,0.675,-0.065,0.135,0.17,-0.15,-0.245,
C[C@H]1CCCN1Cc1nc2cc(NC(=O)c3ccc4c(cnn4C)c3)ccc2[nH]1 [Compound 92],0.19,-0.225,-0.775,-0.715,-0.035,-1.05,1.205,-1.48,-0.42,-0.075,-0.48,0.035,-0.365,-0.915,-0.56,

# Source: article PMC6348381, “Discovery of an MLLT1/3 YEATS Domain Chemical Probe” (Angewandte Chemie (International Ed. in English), 2018)
